Literature values in patent US20160375049A1, “COMPOSITIONS” (GLOBALACORN LTD, priority 2013, published 2016).

Columns and labels:
P2X3 receptors = target: T1, P2X3 receptors (Homo sapiens, UniProt P56373)
T1 sequence (P56373 1-397): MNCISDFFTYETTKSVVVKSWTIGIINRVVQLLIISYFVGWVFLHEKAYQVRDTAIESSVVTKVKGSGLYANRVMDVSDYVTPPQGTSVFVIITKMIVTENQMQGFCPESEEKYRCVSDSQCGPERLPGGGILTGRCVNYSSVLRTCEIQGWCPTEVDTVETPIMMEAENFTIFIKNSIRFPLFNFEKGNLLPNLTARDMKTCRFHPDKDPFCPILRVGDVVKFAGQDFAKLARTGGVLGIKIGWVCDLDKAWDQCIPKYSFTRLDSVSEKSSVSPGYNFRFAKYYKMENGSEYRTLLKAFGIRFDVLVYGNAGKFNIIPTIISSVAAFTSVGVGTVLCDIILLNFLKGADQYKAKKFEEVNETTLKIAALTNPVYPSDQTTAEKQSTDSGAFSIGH

[1] = system: inflammatory and neuropathic pain models; settings: systemic administration
persistent pain = settings: in vivo
[2] = system: acute noxious stimulation; settings: in vivo
nociception = settings: in vivo

| SMILES | binding to P2X3 receptors, concentration range (P2X3 receptors) | nociception in inflammatory and neuropathic pain models [1] | persistent pain in formalin and acetic acid-induced abdominal constriction tests (persistent pain) | activity in models of acute noxious stimulation [2] | anti-nociception in animal models (nociception) |
| --- | --- | --- | --- | --- | --- |
| O=C(O)c1cc(C(=O)O)c(C(=O)N(Cc2cccc(Oc3ccccc3)c2)[C@H]2CCCc3ccccc32)cc1C(=O)O [A-317491] | micromolar range | effectively reduced nociception | effectively blocked persistent pain | generally inactive |  |
| COc1cc(Cc2cnc(N)nc2N)c(C(C)C)cc1OC [RO-3] |  |  |  |  | induce anti-nociception |
